Values of other authors, collected in patent US20050187170A1, “Enhancing the efficiency of RNA polymerase inhibitors by using inosine monophosphate dehydrogenase inhibitors” (BIOCRYST PHARMACEUTICALS, INC., priority 2003, published 2005).

What was measured:
human IMPDH type I = human IMPDH type I (Homo sapiens, UniProt P20839); settings: read-out: Ki, IMPDH type I; type I expressed in normal cells; Carr, et al.
HIV = settings: human peripheral blood CD4+ lymphocytes and macrophages, established human cell lines

Chain of human IMPDH type I (P20839 whole entry): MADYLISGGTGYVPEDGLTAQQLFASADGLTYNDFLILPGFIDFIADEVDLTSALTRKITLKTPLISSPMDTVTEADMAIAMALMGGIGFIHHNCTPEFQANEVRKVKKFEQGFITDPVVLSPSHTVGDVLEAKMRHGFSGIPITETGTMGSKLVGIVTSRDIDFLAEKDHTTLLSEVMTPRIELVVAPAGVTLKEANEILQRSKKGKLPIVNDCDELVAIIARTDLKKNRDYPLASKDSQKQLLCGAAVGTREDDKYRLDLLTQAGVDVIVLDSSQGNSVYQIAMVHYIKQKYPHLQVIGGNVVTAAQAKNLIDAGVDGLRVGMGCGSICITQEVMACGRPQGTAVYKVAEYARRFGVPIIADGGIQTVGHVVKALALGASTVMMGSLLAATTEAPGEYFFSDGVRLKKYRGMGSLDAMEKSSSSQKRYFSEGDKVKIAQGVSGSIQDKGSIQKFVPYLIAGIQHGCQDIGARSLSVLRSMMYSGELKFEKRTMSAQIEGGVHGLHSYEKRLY

## COc1c(C)c2c(c(O)c1C/C=C(\C)CCC(=O)O)C(=O)OC2 [MPA, Mycophenolic acid]
Human IMPDH type I
  Ki: 33 to 37 nM
HIV
  anti-HIV activity in vitro: strong anti-HIV activity
